Experiments:
PDE5A1 = PDE5A1 (Homo sapiens, UniProt O76074)
[1] = system: arterioles and precapillary arteries; details: topically administered; increasing blood flow and tissue perfusion; cited from earlier work

## COc1ccc(-c2oc3c(CC=C(C)C)c(OCCO)cc(O)c3c(=O)c2OCCO)cc1 [Compound 1, 3,7-O-di-(2-hydroxyethyl)icaritin]
PDE5A1
  inhibition of phosphodiesterase cGMP (in words): powerful inhibitors

## COc1ccc(-c2oc3c(CC=C(C)C)c(OCCO)cc(O)c3c(=O)c2O[C@@H]2O[C@@H](C)[C@H](O)[C@@H](O)[C@H]2O)cc1 [Compound 2, 7-O-hydroxyethyl-icariside II]
PDE5A1
  inhibition of phosphodiesterase cGMP (in words): powerful inhibitors

## Visnadin
[1]
  vasokinetic action on arterioles and precapillary arteries (in words): marked vasokinetic action

— US8211479B2, “Combinations of vasoactive substances with estrogens and their use in the treatment of female sexual dysfunctions” (Indena S.p.A., priority 2007, dated 2012)
